# Tested on: multipotent stem cells
# Assay: Nkx2-5-transfected multipotent stem cells cocultured with rat cardiomyocytes
# Type: cell-based, human
# Settings: coculture with rat cardiomyocytes
# From the text: Red=human specific Troponin I, Green=Human cells. Following transfection, multipotent stem cells were cocultured with rat cardiomyocytes that provide environmental signals to allow the transfected cells to develop properly.
substance,measurement,value
"Nkx2-5: developmental control gene Nkx2-5 (SEQ ID NO: 12) transfected into multipotent stem cells (DNA TGCTGGCATGTCCGCTGTCT; listed as DNA, chemistry not given here)",biasing of differentiation (human specific Troponin I staining),biases the differentiation toward the development of cardiac cells
